{
  "source": "paper PMC7934871",
  "about": "(JCI Insight, 2021)",
  "key": {"[1]": {"test_system": "HCT116 xenograft tumors", "assay": "HCT116 xenograft, monomer versus dimerized peptide, peritumoral", "assay_type": "in vivo, mouse", "details": "HCT116 s.c. in NSG mice, peritumoral injection, monomer or dimerized, n = 5", "description": "Figure 5 Dimerized PS-acet.-STAT3 peptide has improved antitumor functions. (A) The enhanced antitumor effect of the dimerized PS-acet.-STAT3 peptide is shown in HCT116 tumors grown in NSG mice (n = 5). Two-way ANOVA (Tukey’s multiple comparisons test) was used for analyzing the kinetics of tumor growth over the treatment period; ****P < 0.001; *P < 0.05. (B) The dimerized PS-acet.-STAT3 peptide downregulates pY705-STAT3 more effectively, as analyzed by immunoprecipitation and Western blotting with tumor homogenates from the tumors in A. hc, heavy chain of antibody. […] (D) quantitative real-time RT-PCR showing mRNA levels of STAT3-regulated proapoptotic and prosurvival genes in HCT116 tumor tissues treated with the indicated STAT3 peptides in A. n = 3 independent quantitative real-time RT-PCR experiments. […] Right panels show the quantified Ki-67 protein levels as well as mean of vessel diameter (data include 5 fields of view per group). […]\nMouse care and experimental procedures were performed under pathogen-free conditions in accordance with established institutional guidance and approved IACUC protocols from Research Animal Care Committee of the City of Hope. […] Tumor growth was measured by a digital caliper every other day. […] Lungs were then analyzed for immune responses by immunostaining followed by confocal imaging. […] Tumor growth was measured by a digital caliper every other day. […]"}, "[2]": {"test_system": "exportins 1–6", "assay": "Immunoprecipitation of FAM-labeled peptide and Western blotting, exportins 1–6", "assay_type": "binding, human", "details": "anti-FITC (FAM) immunoprecipitation, Western blotting, U251 cells", "description": "Data are representative of 3 independent experiments (n = 3).\nWhole cell lysates or tissue homogenates were prepared by using RIPA lysis buffer (50 mM Tris at pH 7.4, 150 mM NaCl, 1 mM EDTA, 0.5% NP-40, 1 mM NaF, 15% glycerol, and 20 mM β-glycerophosphate). A protease inhibitor cocktail (Mini Protease Inhibitor Cocktail; Roche) and a tyrosine phosphatase inhibitor, sodium orthovanadate (Na3VO4, 1 mM), were added freshly to the lysis buffer. Protein amounts were determined by BCA using a Thermo Fisher Scientific kit. Normalized protein amounts were subjected to an SDS-PAGE and transferred onto a nitrocellulose membrane for Western blotting. Proteins were visualized with a chemiluminescent detection kit (Pierce, Thermo Fisher Scientific). The protein levels for STAT1 (sc-346, E-23), STAT3 (sc-482, C-20), STAT5 (sc-74442, A-9), Crm1 (exportin 1) (sc-5595, H-300), CAS (exportin 2) (sc-271537, H-2), exportin 5 (sc-66885, H-300), and exportin 7 (sc-98639, H-82) were determined using antibodies from Santa Cruz Biotechnology Inc. Anti–exportin 3 (exportin T, 630622, LOS1 05-1525), anti–exportin 4 (3499-1), and anti–exportin 6 (11408-1-AP) were from MilliporeSigma, Epitomics, and Proteintech, respectively. […]"}},
  "data": [
    {"substance": "PDIPKEEAFGK685(Ac)YCRPESQEHPC-linker-T*C*C*A*T*G*A*G*C*T*T*C*C*T*G*A*T*G*C*T [PS-acet.-STAT3 peptide]", "values": [
      {"measurement": "tumor growth", "setting": "[1]", "value": "significantly reduced"},
      {"measurement": "binding to exportins 1–6", "setting": "[2]", "value": "not"}
    ]}
  ]
}
